Experimental data taken from patent US11332485B2, “Penicillin-binding protein inhibitors” (priority 2017, dated 2022).
pEC50: −log10 of the molar value.

Experiments:
[1] = target: T1, PBP1a from Escherichia coli (Escherichia coli, UniProt P02918); test: Radioligand competition binding assay with 14C-labeled boronic acid probe (Example 96); conditions: 14C-labeled probe 96 at 20 μM, PBP 0.1 μM; read-out: E. coli K12 PBP1a EC50
T1 construct: made in house
From the text: To determine the ability of boronic acid-based test PBP inhibitors to bind Penicillin Binding Proteins (PBPs), a radio-labelled boronic acid PBP inhibitor (Example 96) was used in competition binding assays to determine boronic acid PBP inhibitor binding to PBP1a or PBP1b from Escherichia coli. PBP1a and PBP1b were purified as described previously (Bertsche, U.; et al., J. Biol. Chem. 2005, 280 (45), 38096-38101; Born, P.; et al., J Biol. Chem. 2006. 281 (37), 26985-26993). To establish assay conditions for competition binding, an enzyme titration/saturation binding experiment was performed. Saturation binding was performed in a buffer comprised of 20 mM Tris (pH 7.5), 500 mM NaCl and 0.1% (v/v) TritonX-100, with PBP1a/PBP1b at a final concentration of 0.1 μM and 96 at final concentrations ranging from 0-100 μM. Mixtures were incubated for 60 minutes, then applied to Zeba Spin Desalting columns or plates (ThermoFisher Scientific) and centrifuged at 1000-1500×g for 2 minutes. The flow through, containing PBP bound with 96, was recovered and 100 μL mixed with 5 mL of UltimaGold liquid scintillation cocktail (Perkin Elmer), and the radioactivity counted using a Beckman Coulter LS 6500 Multipurpose scintillation counter. PBP binding of 96 approached saturation at 20 μM of ^14C-labeled probe. The competition binding assay was validated using the beta-lactam ampicillin, with 96 at a final concentration of 20 μM, PBP1a/PBP1b at a final concentration of 0.1 μM. PBP1a/PBP1b was incubated with ampicillin in a 96-well microplate for 60 minutes, then 96 was added and the mixtures incubated for an additional 60 minutes. The mixtures were then applied to Zeba Spin desalting plates and centrifuged at 1000×g for 2 minutes. The flow through was recovered and 100 μl mixed with 5 ml of UltimaGold liquid scintillation cocktail and the radioactivity counted. Ampicillin inhibited binding of 96 with an EC50 (the concentration of inhibitor required to reduce binding of 96 by 50%) of less than 0.5 μM. Binding assays with boronic acid PBP inhibitors were performed in an identical fashion. The potency of boronic acid PBP inhibitors was reported as the EC50 value.
Representative results are shown in Table 5, where A represents a potency of >100 μM, B represents a potency between 10 μM and 100 μM inclusive, and C represents a potency of <10 μM. NT=Not Tested.

E. coli DH5α/pLBII = test: Broth microdilution MIC assay, empty vector control strain; type: cell-based; conditions: Escherichia coli, read-out: E. coli DH5α/pLBII Microbiological Activity (MIC)
Summary of the method: (§1)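 CLSI broth microdilution in cation-supplemented Mueller-Hinton broth, 2-fold compound dilutions, 5×10^5 CFU/mL inoculum, 16-20 h at 37° C, MIC read visually as lowest concentration without growth. E. coli DH5α carries CTX-M15 on pLBII under Lac promoter, or empty pLBII as control.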

[2] = tested on: E. coli DH5α/pLBII-CTX-M15; test: Broth microdilution MIC assay, engineered strain producing CTX-M15; type: cell-based, Escherichia coli; conditions: Escherichia coli, read-out: E. coli DH5α/pLBII-CTX-M15 Microbiological Activity (MIC)
Summary of the method: as §1

S. aureus ATCC 29213 = test: Broth microdilution MIC assay; type: cell-based; conditions: Staphylococcus aureus, ATCC29213; broth microdilution, 16-20 hours at 37° C.; read-out: S. aureus 29213 MIC
Summary of the method: (§2)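 Per CLSI: log-phase cultures (3-5 h, 37° C) seeded at 5×10^5 CFU/mL into cation-supplemented Mueller-Hinton broth containing 2-fold compound dilutions. After 16-20 h at 37° C, MIC taken visually as lowest growth-free well, for S. aureus ATCC 29213 and E. coli 901C.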

[3] = tested on: hyper-permeable E. coli 901C; test: Broth microdilution MIC assay; type: cell-based; conditions: Escherichia coli, read-out: E. coli 901C MIC
Summary of the method: as §2

[4] = target: T2, PBP3 from Escherichia coli (Escherichia coli, UniProt P0AD68); test: Fluorescence polarization competition binding assay with Bocillin-FL
T2 construct: made in house
From the text: To determine the ability of boronic acid-based test PBP inhibitors to bind Penicillin Binding Proteins (PBPs), Bocillin-FL (fluorescently-labeled penicillin V; ThermoFisher Scientific) was used in a fluorescence polarization (FP) competition binding assay to assess boronic acid PBP inhibitor binding to PBP3 from Escherichia coli. PBP3 from Escherichia coli was cloned and purified as described previously (King, D. T, et al., ACS Infectious Diseases 2015, 1, 175-184). To establish assay conditions for competition binding, an enzyme titration/saturation binding experiment was performed. Bocillin-FL was prepared at […] in a buffer comprised of 50 mM Hepes (pH 8.0), 300 mM NaCl and 5% (v/v) glycerol. Saturation binding was performed by mixing […] of PBP3 ranging in concentrations from […] with 40 μl of the 0.2 μM Bocillin-FL solution, in individual wells of a black 384-well microplate. FP was measured immediately upon addition of PBP3 (Ex, Em), using a Cytation3 (BioTek) microplate reader and measured continuously for 60 minutes. […] The competition binding assay was validated using the beta-lactam ampicillin, with Bocillin-FL at a final concentration of 0.1 μM, PBP3 at a final concentration of 1.5 μM and concentrations of ampicillin from 0-1000 μM. PBP3 was incubated with ampicillin at different concentrations in a black 384-well microplate (Corning) for 30 minutes, then Bocillin-FL added and the FP immediately measured for 60 minutes. […] Binding assays for boronic acid PBP inhibitors were performed in an identical fashion. Representative results are shown in Table 3, where A represents a potency of >500 μM, B represents a potency between 30 μM and 500 μM inclusive, and C represents a potency of <30 μM. NT=Not Tested.

T1 sequence (P02918 whole entry): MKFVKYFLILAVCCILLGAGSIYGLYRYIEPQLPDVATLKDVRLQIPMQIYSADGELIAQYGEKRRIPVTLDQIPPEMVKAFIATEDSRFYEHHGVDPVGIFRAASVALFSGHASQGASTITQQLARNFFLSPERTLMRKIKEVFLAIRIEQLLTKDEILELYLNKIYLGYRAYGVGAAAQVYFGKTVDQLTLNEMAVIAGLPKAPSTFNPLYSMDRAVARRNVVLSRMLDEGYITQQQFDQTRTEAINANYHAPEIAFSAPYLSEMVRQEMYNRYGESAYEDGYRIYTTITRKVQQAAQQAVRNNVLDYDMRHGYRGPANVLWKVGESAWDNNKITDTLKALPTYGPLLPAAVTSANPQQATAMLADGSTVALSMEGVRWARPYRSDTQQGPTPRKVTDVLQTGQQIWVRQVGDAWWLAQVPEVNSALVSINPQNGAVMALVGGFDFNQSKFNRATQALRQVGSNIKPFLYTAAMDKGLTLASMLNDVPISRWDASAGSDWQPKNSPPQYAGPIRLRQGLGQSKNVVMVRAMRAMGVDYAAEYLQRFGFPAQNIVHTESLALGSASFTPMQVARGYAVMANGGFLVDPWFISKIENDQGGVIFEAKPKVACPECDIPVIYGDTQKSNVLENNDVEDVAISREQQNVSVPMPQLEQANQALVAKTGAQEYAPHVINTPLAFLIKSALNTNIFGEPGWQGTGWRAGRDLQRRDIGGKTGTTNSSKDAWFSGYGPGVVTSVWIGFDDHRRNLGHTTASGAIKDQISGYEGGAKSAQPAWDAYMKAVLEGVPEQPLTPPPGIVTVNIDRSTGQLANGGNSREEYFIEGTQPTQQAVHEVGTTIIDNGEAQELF
T2 sequence (P0AD68 1-577): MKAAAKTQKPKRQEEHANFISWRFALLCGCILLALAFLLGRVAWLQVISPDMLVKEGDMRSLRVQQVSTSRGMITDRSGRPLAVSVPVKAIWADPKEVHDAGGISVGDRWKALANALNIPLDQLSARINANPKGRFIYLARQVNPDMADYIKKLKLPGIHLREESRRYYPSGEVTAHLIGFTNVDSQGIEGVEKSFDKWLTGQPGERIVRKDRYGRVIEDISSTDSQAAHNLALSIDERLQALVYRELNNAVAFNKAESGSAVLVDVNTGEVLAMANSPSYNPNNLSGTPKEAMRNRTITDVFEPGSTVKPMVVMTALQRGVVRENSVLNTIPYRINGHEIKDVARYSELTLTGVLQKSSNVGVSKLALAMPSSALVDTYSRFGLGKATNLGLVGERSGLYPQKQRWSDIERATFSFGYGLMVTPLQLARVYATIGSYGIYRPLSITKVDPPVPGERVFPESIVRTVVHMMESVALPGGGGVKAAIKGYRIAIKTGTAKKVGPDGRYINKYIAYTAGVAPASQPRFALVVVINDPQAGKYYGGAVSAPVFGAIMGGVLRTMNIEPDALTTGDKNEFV

Compound	pEC50 [1]	MIC (E. coli DH5α/pLBII) [µg/mL]	MIC [2] [µg/mL]	MIC (S. aureus ATCC 29213) [µg/mL]	MIC [3] [µg/mL]	pEC50 [4]
CN1CCN(C(=O)NC(C(=O)N[C@H]2Cc3cccc(C(=O)O)c3OB2O)c2csc(N)n2)C(=O)C1=O (stereo partly drawn) [Example 43, (3R)-3-(2-(2-aminothiazol-4-yl)-2-(4-methyl-2,3-dioxopiperazine-1-carboxamido)acetamido)-2-hydroxy-3,4-dihydro-2H-benzo[e][1,2]oxaborinine-8-carboxylic acid]	< 4.00	32 to 64	32 to 64	64 to 128	< 64	3.30 to 4.52
CS(=O)(=O)N1CCN(C(=O)NC(C(=O)N[C@H]2Cc3cccc(C(=O)O)c3OB2O)c2csc(N)n2)C1=O (stereo partly drawn) [Example 20, (3R)-3-(2-(2-aminothiazol-4-yl)-2-(3-(methylsulfonyl)-2-oxoimidazolidine-1-carboxamido)acetamido)-2-hydroxy-3,4-dihydro-2H-benzo[e][1,2]oxaborinine-8-carboxylic acid]	> 5.00	32 to 64	32 to 64	64 to 128	< 64	3.30 to 4.52
CCN1CCN(C(=O)N[C@@H](C(=O)N[C@H]2Cc3cccc(C(=O)O)c3OB2O)C(C)(C)C)C(=O)C1=O [Example 85, (R)-3-((R)-2-(4-ethyl-2,3-dioxopiperazine-1-carboxamido)-3,3-dimethylbutanamido)-2-hydroxy-3,4-dihydro-2H-benzo[e][1,2]oxaborinine-8-carboxylic acid]	> 5.00		128 to 256	> 128	< 64	> 4.52
CCN1CCN(C(=O)N[C@@H](CO)C(=O)N[C@H]2Cc3cccc(C(=O)O)c3OB2O)C(=O)C1=O [Example 32, (R)-3-((S)-2-(4-Ethyl-2,3-dioxopiperazine-1-carboxamido)-3-hydroxy-propanamido)-2-hydroxy-3,4-dihydro-2H-benzo[e][1,2]oxaborinine-8-carboxylic acid]		> 512	> 512	> 128	> 128	< 3.30
CCN1CCN(C(=O)N[C@H](CCC(N)=O)C(=O)N[C@H]2Cc3cccc(C(=O)O)c3OB2O)C(=O)C1=O [Example 50, (R)-3-((R)-5-amino-2-(4-ethyl-2,3-dioxopiperazine-1-carboxamido)-5-oxopentanamide)-2-hydroxy-3,4-dihydro-2H-benzo[e][1,2]oxaborinine-8-carboxylic acid]		32 to 64	32 to 64	> 128	< 64	< 3.30
NCCN1CCN(C(=O)NC(C(=O)N[C@H]2Cc3cccc(C(=O)O)c3OB2O)c2csc(N)n2)C(=O)C1=O (stereo partly drawn) [Example 58, (3R)-3-(2-(4-(2-aminoethyl)-2,3-dioxopiperazine-1-carboxamido)-2-(2-aminothiazol-4-yl)acetamido)-2-hydroxy-3,4-dihydro-2H-benzo[e][1,2]oxaborinine-8-carboxylic acid]		32 to 64	32 to 64	> 128	< 64	3.30 to 4.52
COCCN1CCN(C(=O)NC(C(=O)N[C@H]2Cc3cccc(C(=O)O)c3OB2O)c2csc(N)n2)C(=O)C1=O (stereo partly drawn) [Example 61, (3R)-3-(2-(2-aminothiazol-4-yl)-2-(4-(2-methoxyethyl)-2,3-dioxopiperazine-1-carboxamido)acetamido)-2-hydroxy-3,4-dihydro-2H-benzo[e][1,2]oxaborinine-8-carboxylic acid]		32 to 64	32 to 64	64 to 128	< 64	> 4.52
CCN1CCN(C(=O)N[C@H](CCO)C(=O)N[C@H]2Cc3cccc(C(=O)O)c3OB2O)C(=O)C1=O [Example 59, (R)-3-((R)-2-(4-ethyl-2,3-dioxopiperazine-1-carboxamido)-4-hydroxybutanamido)-2-hydroxy-3,4-dihydro-2H-benzo[e][1,2]oxaborinine-8-carboxylic acid]		32 to 64	32 to 64	> 128	< 64	< 3.30
Nc1nc(C(NC(=O)N2CCN(CCO)C(=O)C2=O)C(=O)N[C@H]2Cc3cccc(C(=O)O)c3OB2O)cs1 (stereo partly drawn) [Example 60, (3R)-3-(2-(2-aminothiazol-4-yl)-2-(4-(2-hydroxyethyl)-2,3-dioxopiperazine-1-carboxamido)acetamido)-2-hydroxy-3,4-dihydro-2H-benzo[e][1,2]oxaborinine-8-carboxylic acid]		8 to 16	8 to 16	64 to 128	< 64	3.30 to 4.52
CC(C)N1CCN(C(=O)NC(C(=O)N[C@H]2Cc3cccc(C(=O)O)c3OB2O)c2csc(N)n2)C(=O)C1=O (stereo partly drawn) [Example 55, (3R)-3-(2-(2-aminothiazol-4-yl)-2-(4-isopropyl-2,3-dioxopiperazine-1-carboxamido)acetamido)-2-hydroxy-3,4-dihydro-2H-benzo[e][1,2]oxaborinine-8-carboxylic acid]		8 to 16	8 to 16	64 to 128	< 64	3.30 to 4.52
CCN1CCN(C(=O)NC(C(=O)N[C@H]2Cc3cccc(C(=O)O)c3OB2O)c2csc(N)n2)CC1=O (stereo partly drawn) [Example 62, (3R)-3-(2-(2-aminothiazol-4-yl)-2-(4-ethyl-3-oxopiperazine-1-carboxamido)acetamido)-2-hydroxy-3,4-dihydro-2H-benzo[e][1,2]oxaborinine-8-carboxylic acid]		128 to 256	128 to 256	> 128	< 64	3.30 to 4.52
Nc1nc(C(NC(=O)N2CCN(CCF)C(=O)C2=O)C(=O)N[C@H]2Cc3cccc(C(=O)O)c3OB2O)cs1 (stereo partly drawn) [Example 52, (3R)-3-(2-(2-aminothiazol-4-yl)-2-(4-(2-fluoroethyl)-2,3-dioxopiperazine-1-carboxamido)acetamido)-2-hydroxy-3,4-dihydro-2H-benzo[e][1,2]oxaborinine-8-carboxylic acid]		8 to 16	8 to 16	64 to 128	< 64	3.30 to 4.52
